Results from the supplement of paper PMC9663587.

Columns and labels:
Assay in all cases: area over the GR curve, 72 h; higher = more effect;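 further: Dye Drop or Deep Dye Drop imaging of viable cells in 384-well plates (Hoechst nuclei, LIVE/DEAD dye), nine half-log doses, GR normalized to DMSO controls and time-zero plates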
UACC812 = tested on: UACC812
SUM185PE = tested on: SUM185PE
HCC1806 = tested on: HCC1806
HCC1937 = tested on: HCC1937
MDAMB361 = tested on: MDAMB361
HCC1395 = tested on: HCC1395
MDAMB330 = tested on: MDAMB330
PDX1328 = tested on: PDX1328
EVSAT = tested on: EVSAT
BT549 = tested on: BT549
MDAMB453 = tested on: MDAMB453
ZR751 = tested on: ZR751

SMILES	area over the GR curve (UACC812) [GR]	area over the GR curve (SUM185PE) [GR]	area over the GR curve (HCC1806) [GR]	area over the GR curve (HCC1937) [GR]	area over the GR curve (MDAMB361) [GR]	area over the GR curve (HCC1395) [GR]	area over the GR curve (MDAMB330) [GR]	area over the GR curve (PDX1328) [GR]	area over the GR curve (EVSAT) [GR]	area over the GR curve (BT549) [GR]	area over the GR curve (MDAMB453) [GR]	area over the GR curve (ZR751) [GR]
CC(C)n1nc(-c2ccc3oc(N)nc3c2)c2c(N)ncnc21 [INK128/MLN0128] (max 3.162 µM)	1.22	0.609	0.39	0.369	1.1	0.557	1.08	0.745	0.691	0.534	0.756	0.679
O=C1NC(=NCc2cccs2)SC1=Cc1ccc2ncccc2c1 [R0-3306] (max 10 µM)	0.142	0.0686	0.085	0.143	0.0965	0.418	0.0605	0.112	0.115	0.12	0.102	0.0473
COc1cc2c(Oc3ccc4[nH]c(C)cc4c3F)ncnc2cc1OCCCN1CCCC1 [Cediranib/AZD2171] (max 10 µM)	0.342	0.582	0.0606	0.044	0.288	0.223	0.105	0.162	0.064	0.15	0.126	0.019
CN(C)CC[C@H](CSc1ccccc1)Nc1ccc(S(=O)(=O)NC(=O)c2ccc(N3CCN(Cc4ccccc4-c4ccc(Cl)cc4)CC3)cc2)cc1[N+](=O)[O-] [ABT-737] (max 10 µM)	0.276	0.319	-0.111	0.0829	-0.0339	-0.0157	0.189	0.304	0.0258	-0.0258	-0.0061	0.0133
COc1cc(N2CCN(C)CC2)ccc1Nc1ncc2c(n1)N(C)c1ccccc1C(=O)N2CC(F)(F)F [FMF-03-146-1]	0.0144	0.0495	0.0215	0.0547	0.126	0.163	0.0128	0.071	-0.0034	0.0127	0.0207	0.0552
CCc1cncnc1N1CCN(Cc2nc3ccc(C(F)(F)F)cc3[nH]2)CC1 (max 10 µM)	0.275	0.144	-0.0429	0.039	0.0684	0.0037	0.0392	0.0319	0.0249	-0.0132	-0.0403	-0.0587
CO[C@H]1C[C@@H]2CC[C@@H](C)[C@@](O)(O2)C(=O)C(=O)N2CCCC[C@H]2C(=O)O[C@H]([C@H](C)C[C@@H]2CC[C@@H](OCCO)[C@H](OC)C2)CC(=O)[C@H](C)/C=C(\C)[C@@H](O)[C@@H](OC)C(=O)[C@H](C)C[C@H](C)/C=C/C=C/C=C/1C [Everolimus] (max 10 µM)	0.984	0.2	0.197	0.335	0.85	0.555	1.28	0.642	0.551	0.439	0.888	0.669
CN1CCN(C(=O)c2ccc3cc(CCNc4ncnc5ccc(C#N)cc45)ccc3c2)CC1 [senexin b] (max 10 µM)	0.421	0.293	0.0969	0.286	0.323	0.264	0.146	0.0976	0.0803	0.181	0.193	0.05
C[C@@H]1COCCN1c1cc(C2([S@](C)(=N)=O)CC2)nc(-c2cc[nH]c3nccc2-3)n1 [AZD6738] (max 10 µM)	-0.0578	0.0637	0.307	-0.0947	0.161	0.194	0.0364	0.172	-0.0225	0.0821	0.0984	0.03
COc1ccc2c(c1)[C@]1(C[C@H]1c1ccc3c(/C=C/c4ccc(CN5C[C@@H](C)O[C@@H](C)C5)cc4)n[nH]c3c1)C(=O)N2	0.524	0.161	0.94	0.655	0.425	0.709	0.438	0.553	0.531	0.889	0.537	0.451
CC(=O)O[C@H]1C(=O)[C@@]2(C)[C@H]([C@H](OC(=O)c3ccccc3)[C@]3(O)C[C@H](OC(=O)[C@H](O)[C@@H](NC(=O)c4ccccc4)c4ccccc4)C(C)=C1C3(C)C)[C@]1(OC(C)=O)CO[C@@H]1C[C@@H]2O [Paclitaxel] (max 1 µM)	1.44	0.479	0.838	0.658	0.974	0.839	0.846	0.866	0.844	0.699	0.658	0.511
CCCCOc1c(C(=O)c2c(F)cc(C)cc2F)c[nH]c2nncc1-2 (max 10 µM)	0.886	0.103	0.455	0.917	0.56	0.807	0.372	0.142	0.322	0.94	0.384	0.209
Cc1nc(-c2cn3c(n2)-c2ccc(-c4cnn(C(C)(C)C(N)=O)c4)cc2OCC3)n(C(C)C)n1 [Taselisib/GDC0032] (max 10 µM)	0.693	0.879	0.258	0.277	1.41	0.208	1.15	0.576	0.412	0.223	1.01	0.393
Cc1nn(C)c(COc2ccc(N3CCN(S(=O)(=O)N(C)C)CC3)cc2)c1-c1cccc2c(CCCOc3cccc4ccccc34)c(C(=O)O)n(CCN3CCOCC3)c12 (max 10 µM)	0.0654	0.117	-0.0123	0.006	-0.0172	-0.0037	0.0479	-0.0317	0.0097	0.0083	-0.0756	-0.0518
C=CC(=O)Nc1ccc(C(=O)Nc2[nH]nc3c2CN(C(=O)N[C@H](CN(C)C)c2ccccc2)C3(C)C)cc1 [YKL-5-124] (max 10 µM)	1.02	0.518	1.01	0.861	1.14	0.874	0.925	0.532	0.911	0.869	0.834	0.717
Cc1cc(C(C)Nc2ccccc2)c2nc(N3CCOCC3)cc(=O)n2c1 (configuration not stated) [TGX221] (max 10 µM)	0.523	0.163	-0.02	0.0193	-0.0911	0.0832	-0.0042	0.0318	0.254	0.0568	-0.0643	0.354
